We go through five compounds from article PMC7317212 (Chemmedchem, 2020).

For assay [1], the target named is T1, mGAT4 (Mus musculus, UniProt P31650).
T1 construct: expressed in transfected cells; host or cells: HEK293
T1 sequence (P31650 1-627): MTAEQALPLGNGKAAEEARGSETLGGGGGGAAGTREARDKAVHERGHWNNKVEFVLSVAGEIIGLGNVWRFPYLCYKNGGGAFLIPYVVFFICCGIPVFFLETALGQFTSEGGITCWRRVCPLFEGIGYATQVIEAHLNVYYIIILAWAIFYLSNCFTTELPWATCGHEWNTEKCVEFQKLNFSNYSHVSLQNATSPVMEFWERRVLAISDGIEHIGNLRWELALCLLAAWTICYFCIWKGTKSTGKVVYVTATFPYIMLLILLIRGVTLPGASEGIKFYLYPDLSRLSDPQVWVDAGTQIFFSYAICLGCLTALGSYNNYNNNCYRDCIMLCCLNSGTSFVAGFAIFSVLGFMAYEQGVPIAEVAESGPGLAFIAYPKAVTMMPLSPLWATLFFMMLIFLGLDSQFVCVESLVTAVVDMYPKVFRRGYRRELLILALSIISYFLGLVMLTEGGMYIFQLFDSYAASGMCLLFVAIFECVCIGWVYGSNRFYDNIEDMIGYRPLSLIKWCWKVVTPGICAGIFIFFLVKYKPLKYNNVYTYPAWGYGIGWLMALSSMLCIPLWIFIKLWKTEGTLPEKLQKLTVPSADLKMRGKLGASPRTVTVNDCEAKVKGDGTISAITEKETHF
Put plainly: GABA uptake inhibition at mGAT4 with varied preincubation time. In kind it is cell-based.

Assay [2] deals with T2, mGAT2 (Mus musculus, UniProt P31651).
T2 construct: expressed in transfected cells; host or cells: HEK293
T2 sequence (P31651 1-614): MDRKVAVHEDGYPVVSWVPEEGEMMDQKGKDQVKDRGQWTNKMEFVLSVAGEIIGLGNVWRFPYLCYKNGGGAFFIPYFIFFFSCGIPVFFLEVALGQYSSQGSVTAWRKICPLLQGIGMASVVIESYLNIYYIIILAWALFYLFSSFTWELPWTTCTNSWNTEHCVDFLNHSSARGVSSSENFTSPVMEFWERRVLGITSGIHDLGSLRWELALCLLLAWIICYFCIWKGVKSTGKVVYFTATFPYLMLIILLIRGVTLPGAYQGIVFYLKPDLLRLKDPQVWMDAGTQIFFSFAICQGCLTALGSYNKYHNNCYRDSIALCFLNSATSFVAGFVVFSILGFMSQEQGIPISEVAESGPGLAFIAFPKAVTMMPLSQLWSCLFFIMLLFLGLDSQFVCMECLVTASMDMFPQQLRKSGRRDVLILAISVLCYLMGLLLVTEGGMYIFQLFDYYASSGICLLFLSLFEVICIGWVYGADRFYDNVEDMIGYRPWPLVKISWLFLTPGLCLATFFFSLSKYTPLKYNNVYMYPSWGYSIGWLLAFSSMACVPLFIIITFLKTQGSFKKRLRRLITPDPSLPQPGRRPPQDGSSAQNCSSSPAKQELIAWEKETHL
Particulars: cited from earlier work; for remaining [^3H]GABA uptake mGAT2: in presence of 100 μM compound.

The target of assay [3] is T3, mGAT3 (Mus musculus, UniProt P31649).
T3 construct: expressed in transfected cells; host or cells: HEK293
T3 sequence (P31649 1-602): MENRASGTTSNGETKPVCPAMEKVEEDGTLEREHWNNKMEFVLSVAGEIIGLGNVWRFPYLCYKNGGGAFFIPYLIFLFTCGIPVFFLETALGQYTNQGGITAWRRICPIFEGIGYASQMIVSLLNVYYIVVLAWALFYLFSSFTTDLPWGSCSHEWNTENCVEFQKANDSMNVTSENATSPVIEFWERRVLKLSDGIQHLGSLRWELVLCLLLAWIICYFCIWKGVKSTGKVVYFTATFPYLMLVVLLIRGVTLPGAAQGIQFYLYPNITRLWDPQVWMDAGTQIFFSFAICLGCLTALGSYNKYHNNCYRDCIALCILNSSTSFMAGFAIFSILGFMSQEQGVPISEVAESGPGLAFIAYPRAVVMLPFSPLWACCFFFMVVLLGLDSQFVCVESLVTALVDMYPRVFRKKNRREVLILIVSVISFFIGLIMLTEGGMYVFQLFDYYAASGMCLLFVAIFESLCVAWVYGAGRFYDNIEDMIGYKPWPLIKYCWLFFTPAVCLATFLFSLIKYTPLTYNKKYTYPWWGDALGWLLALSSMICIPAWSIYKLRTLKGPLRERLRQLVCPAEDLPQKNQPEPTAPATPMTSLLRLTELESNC
Particulars: cited from earlier work.

In assay [4] the target is T1, mGAT4. Conditions: in presence of 100 μM compound; cited from earlier work.
The target of assay [5] is T4, mGAT1 (Mus musculus, UniProt P31648).
T4 construct: expressed in transfected cells; host or cells: HEK293
As to the kind of experiment: [^3H]GABA uptake assay, HEK293 cells expressing mGAT1. The format is cell-based. Conditions: HEK293; in presence of 100 μM compound. An outline of the steps: (§1)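 HEK293 cells expressing mouse GATs preincubated 25 min at 37 °C with compound in Krebs buffer pH 7.2, then [3H]GABA added: 8 nM plus 32 nM unlabeled for 4 min (mGAT1/3/4), 20 nM plus 20 nM for 10 min (mGAT2). Filtration, scintillation counting; nonspecific uptake with 10 mM (mGAT1/3/4) or 100 mM GABA (mGAT2); pIC50.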

Assay [6] deals with T1, mGAT4. As to the kind of experiment: [^3H]GABA uptake assay, HEK293 cells expressing mGAT4. In kind it is cell-based. An outline of the steps: as §1
Assay [7] has as its target T2, mGAT2. Put plainly: [^3H]GABA uptake assay, HEK293 cells expressing mGAT2. In kind it is cell-based. Particulars: HEK293; in presence of 100 μM compound. An outline of the steps: as §1
The target of assay [8] is T4, mGAT1. Put plainly: MS Binding Assay with NO711 as native MS marker. The gist of the method: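 Competitive MS binding using membranes from HEK293 cells stably expressing mGAT1, with 10 nM unlabeled NO711 as marker and compounds at 7 concentrations. Nonspecific binding defined with 100 mM GABA. Bound NO711 eluted after filtration and quantified by LC-ESI-MS/MS against [2H10]NO711; Ki derived.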

Assay [9] addresses T3, mGAT3. As to the kind of experiment: [^3H]GABA uptake assay, HEK293 cells expressing mGAT3. In kind it is cell-based. An outline of the steps:
as §1

The mark [10] stands for this setting: HEK293, in presence of 100 μM compound.

For the compound `COc1ccc(C(OCCN2CCC[C@H](C(=O)O)C2)(c2ccc(OC)cc2)c2ccc(OC)cc2)cc1` [(S)‐SNAP‐5114, reference compound], the “Normalized pIC50 mGAT4” value in assay [1] (preincubation time 10 min, experiments 1-3, relative to 25 min = 100.00) is given as 97.20; in [1] (preincubation time 25 min, experiments 1-3 (reference)) it was 100.00; in [1] (preincubation time 25 min, experiments 4-6 (reference)), 100.00; in [1] (preincubation time 60 min, experiments 1-3, relative to 25 min = 100.00), 101.23; in [1] (preincubation time 60 min, experiments 4-6, relative to 25 min = 100.00), 103.79. For the same compound, the “remaining [^3H]GABA uptake mGAT2” value in assay [2] is recorded as 56%.
With `COc1ccc(C(OCCN2CCC[C@H](C(=O)O)C2)(c2ccc(OC)cc2)c2ccc(OC)cc2C)cc1` [DDPM‐859], the “pIC50 mGAT2” value in [2] ([^3H]GABA uptake, pIC50±SEM) is given as 4.12±0.08. Also, the “pIC50 mGAT3” value in assay [3] ([^3H]GABA uptake, pIC50±SEM) is 4.85±0.04.
As to `Cc1ccsc1C(=CCCN1CCC[C@@H](C(=O)O)C1)c1sccc1C` [Tiagabine], the “remaining [^3H]GABA uptake mGAT4” value in assay [4] is listed as 73%. For the same compound, in [2], the “remaining [^3H]GABA uptake mGAT2” value was 50%. Moreover, in assay [3] (in presence of 100 μM compound), the “remaining [^3H]GABA uptake mGAT3” value was 64%.
For orientation: IC50 means the concentration that gives 50% inhibition. As for `COc1ccc(C(OCCN2CCCC(C(=O)O)C2)(c2ccc(OC)cc2)c2ccc(C(C)=O)cc2)cc1` (racemic) [5 b, rac ‐1‐{2‐[(4‐Acetylphenyl)bis(4‐methoxyphenyl)methoxy]ethyl}piperidine‐3‐carboxylic acid], the remaining activity at 100 µM in assay [5] came out at 64.6%; in assay [7], 64.2%. In addition, the IC50 is 3.72 µM in assay [6] ([^3H]GABA uptake, pIC50±SEM) and 57.5 µM in assay [9] ([^3H]GABA uptake, pIC50±SEM). The Ki in assay [8] (MS Binding Assay, NO711 marker, pKi±SEM, read-out: pK i mGAT1 (converted)) was 30.9 µM.
In the case of `COc1ccc(C(OCCN2CCCC(C(=O)O)C2)(C(=O)O)c2ccc(OC)cc2)cc1` (racemic) [5 k, rac ‐1‐{2‐[Carboxybis(4‐methoxyphenyl)methoxy]ethyl}piperidine‐3‐carboxylic acid], the remaining activity at 100 µM in assay [5] was determined as 100%; in assay [6] (setting [10]), 96.5%; in assay [7], 101%; in assay [8] (in presence of 100 μM compound, read-out: remaining specific NO711 binding (mGAT1)), 96.9%; in assay [9] (setting [10]), 94%.
